Converted amounts (≈) assume the structure as drawn.
What follows are compounds tested on Candida albicans (assay: Antifungal activity against Candida albicans at 1000 ug/mL after 72 hrs by agar diffusion assay). Conditions: read-out: IZ.
Assay type: functional

Row | Compound | zone of inhibition at 1000 µg/mL [mm]
1 | O=c1oc2ccccc2cc1-c1nc2ccccc2c2nc3ccccc3n12 | 27
2 | O=c1oc2c(Br)cccc2cc1-c1nc2ccccc2c2nc3ccccc3n12 | 32
3 | O=c1oc2c(Cl)cc(Cl)cc2cc1-c1nc2ccccc2c2nc3ccccc3n12 | 39

These compounds were tested on Streptococcus pyogenes (assay: Antibacterial activity against Streptococcus pyogenes by liquid dilution method). Conditions: not given.
Assay type: functional

Row | MIC [µg/mL] | Compound
4 | 30 (≈ 82.6 µM) | O=c1oc2ccccc2cc1-c1nc2ccccc2c2nc3ccccc3n12
5 | 35 (≈ 79.1 µM) | O=c1oc2c(Br)cccc2cc1-c1nc2ccccc2c2nc3ccccc3n12
6 | 10 (≈ 23.1 µM) | O=c1oc2c(Cl)cc(Cl)cc2cc1-c1nc2ccccc2c2nc3ccccc3n12

Each compound was assayed on Staphylococcus aureus (assay: Antibacterial activity against Staphylococcus aureus at 1000 ug/mL after 72 hrs by agar diffusion assay). Conditions: read-out: IZ.
Assay type: functional

Row | Compound | zone of inhibition at 1000 µg/mL [mm]
7 | O=c1oc2ccccc2cc1-c1nc2ccccc2c2nc3ccccc3n12 | 36
8 | O=c1oc2c(Br)cccc2cc1-c1nc2ccccc2c2nc3ccccc3n12 | 39
9 | O=c1oc2c(Cl)cc(Cl)cc2cc1-c1nc2ccccc2c2nc3ccccc3n12 | 50

What follows are compounds tested on Salmonella typhimurium (assay: Antibacterial activity against Salmonella Typhimurium at 1000 ug/mL after 72 hrs by agar diffusion assay). Conditions: Salmonella enterica, read-out: IZ.
Assay type: functional, Salmonella enterica subsp. enterica serovar Typhimurium

Row | Compound | zone of inhibition at 1000 µg/mL [mm]
10 | O=c1oc2ccccc2cc1-c1nc2ccccc2c2nc3ccccc3n12 | 32
11 | O=c1oc2c(Br)cccc2cc1-c1nc2ccccc2c2nc3ccccc3n12 | 29
12 | O=c1oc2c(Cl)cc(Cl)cc2cc1-c1nc2ccccc2c2nc3ccccc3n12 | 48

These compounds were tested on Escherichia coli (assay: Antibacterial activity against Escherichia coli by liquid dilution method). Conditions: not given.
Assay type: functional

Row | MIC [µg/mL] | Compound
13 | 25 (≈ 68.8 µM) | O=c1oc2ccccc2cc1-c1nc2ccccc2c2nc3ccccc3n12
14 | 45 (≈ 102 µM) | O=c1oc2c(Br)cccc2cc1-c1nc2ccccc2c2nc3ccccc3n12
15 | 10 (≈ 23.1 µM) | O=c1oc2c(Cl)cc(Cl)cc2cc1-c1nc2ccccc2c2nc3ccccc3n12

Each compound was assayed on Streptococcus pyogenes (assay: Antibacterial activity against Streptococcus pyogenes at 1000 ug/mL after 72 hrs by agar diffusion assay). Conditions: read-out: IZ.
Assay type: functional

Row | Compound | zone of inhibition at 1000 µg/mL [mm]
16 | O=c1oc2ccccc2cc1-c1nc2ccccc2c2nc3ccccc3n12 | 23
17 | O=c1oc2c(Br)cccc2cc1-c1nc2ccccc2c2nc3ccccc3n12 | 27
18 | O=c1oc2c(Cl)cc(Cl)cc2cc1-c1nc2ccccc2c2nc3ccccc3n12 | 38

Each compound was assayed on Escherichia coli (assay: Antibacterial activity against Escherichia coli at 1000 ug/mL after 72 hrs by agar diffusion assay). Conditions: read-out: IZ.
Assay type: functional

Row | Compound | zone of inhibition at 1000 µg/mL [mm]
19 | O=c1oc2ccccc2cc1-c1nc2ccccc2c2nc3ccccc3n12 | 38
20 | O=c1oc2c(Br)cccc2cc1-c1nc2ccccc2c2nc3ccccc3n12 | 28
21 | O=c1oc2c(Cl)cc(Cl)cc2cc1-c1nc2ccccc2c2nc3ccccc3n12 | 44

What follows are compounds tested on Aspergillus niger (assay: Antifungal activity against Aspergillus niger at 1000 ug/mL after 72 hrs by agar diffusion assay). Conditions: read-out: IZ.
Assay type: functional

Row | Compound | zone of inhibition at 1000 µg/mL [mm]
22 | O=c1oc2ccccc2cc1-c1nc2ccccc2c2nc3ccccc3n12 | 34
23 | O=c1oc2c(Br)cccc2cc1-c1nc2ccccc2c2nc3ccccc3n12 | 37
24 | O=c1oc2c(Cl)cc(Cl)cc2cc1-c1nc2ccccc2c2nc3ccccc3n12 | 38

The compounds below were run on Salmonella typhimurium (assay: Antibacterial activity against Salmonella Typhimurium by liquid dilution method). Conditions: Salmonella enterica.
Assay type: functional, Salmonella enterica subsp. enterica serovar Typhimurium

Row | MIC [µg/mL] | Compound
25 | 25 (≈ 68.8 µM) | O=c1oc2ccccc2cc1-c1nc2ccccc2c2nc3ccccc3n12
26 | 35 (≈ 79.1 µM) | O=c1oc2c(Br)cccc2cc1-c1nc2ccccc2c2nc3ccccc3n12
27 | 2.5 (≈ 5.78 µM) | O=c1oc2c(Cl)cc(Cl)cc2cc1-c1nc2ccccc2c2nc3ccccc3n12

These compounds were tested on Klebsiella pneumoniae (assay: Antibacterial activity against Klebsiella pneumoniae at 1000 ug/mL after 72 hrs by agar diffusion assay). Conditions: read-out: IZ.
Assay type: functional

Row | Compound | zone of inhibition at 1000 µg/mL [mm]
28 | O=c1oc2ccccc2cc1-c1nc2ccccc2c2nc3ccccc3n12 | 34
29 | O=c1oc2c(Br)cccc2cc1-c1nc2ccccc2c2nc3ccccc3n12 | 31
30 | O=c1oc2c(Cl)cc(Cl)cc2cc1-c1nc2ccccc2c2nc3ccccc3n12 | 47

These compounds were tested on Bacillus subtilis (assay: Antibacterial activity against Bacillus subtilis at 1000 ug/mL after 72 hrs by agar diffusion assay). Conditions: read-out: IZ.
Assay type: functional

Row | Compound | zone of inhibition at 1000 µg/mL [mm]
31 | O=c1oc2ccccc2cc1-c1nc2ccccc2c2nc3ccccc3n12 | 31
32 | O=c1oc2c(Br)cccc2cc1-c1nc2ccccc2c2nc3ccccc3n12 | 28
33 | O=c1oc2c(Cl)cc(Cl)cc2cc1-c1nc2ccccc2c2nc3ccccc3n12 | 42

The compounds below were run on Aspergillus flavus (assay: Antifungal activity against Aspergillus flavus at 1000 ug/mL after 72 hrs by agar diffusion assay). Conditions: read-out: IZ.
Assay type: functional

Row | Compound | zone of inhibition at 1000 µg/mL [mm]
34 | O=c1oc2ccccc2cc1-c1nc2ccccc2c2nc3ccccc3n12 | 32
35 | O=c1oc2c(Br)cccc2cc1-c1nc2ccccc2c2nc3ccccc3n12 | 45
36 | O=c1oc2c(Cl)cc(Cl)cc2cc1-c1nc2ccccc2c2nc3ccccc3n12 | 38

Each compound was assayed on Klebsiella pneumoniae (assay: Antibacterial activity against Klebsiella pneumoniae by liquid dilution method). Conditions: not given.
Assay type: functional

Row | MIC [µg/mL] | Compound
37 | 30 (≈ 82.6 µM) | O=c1oc2ccccc2cc1-c1nc2ccccc2c2nc3ccccc3n12
38 | 25 (≈ 56.5 µM) | O=c1oc2c(Br)cccc2cc1-c1nc2ccccc2c2nc3ccccc3n12
39 | 5 (≈ 11.6 µM) | O=c1oc2c(Cl)cc(Cl)cc2cc1-c1nc2ccccc2c2nc3ccccc3n12

What follows are compounds tested on Bacillus subtilis (assay: Antibacterial activity against Bacillus subtilis by liquid dilution method). Conditions: not given.
Assay type: functional

Row | MIC [µg/mL] | Compound
40 | 45 (≈ 124 µM) | O=c1oc2ccccc2cc1-c1nc2ccccc2c2nc3ccccc3n12
41 | 40 (≈ 90.4 µM) | O=c1oc2c(Br)cccc2cc1-c1nc2ccccc2c2nc3ccccc3n12
42 | 10 (≈ 23.1 µM) | O=c1oc2c(Cl)cc(Cl)cc2cc1-c1nc2ccccc2c2nc3ccccc3n12

Each compound was assayed on Aspergillus flavus (assay: Antifungal activity against Aspergillus flavus by liquid dilution method). Conditions: not given.
Assay type: functional

Row | MIC [µg/mL] | Compound
43 | 40 (≈ 110 µM) | O=c1oc2ccccc2cc1-c1nc2ccccc2c2nc3ccccc3n12
44 | 10 (≈ 22.6 µM) | O=c1oc2c(Br)cccc2cc1-c1nc2ccccc2c2nc3ccccc3n12
45 | 35 (≈ 81 µM) | O=c1oc2c(Cl)cc(Cl)cc2cc1-c1nc2ccccc2c2nc3ccccc3n12

The compounds below were run on Aspergillus niger (assay: Antifungal activity against Aspergillus niger by liquid dilution method). Conditions: not given.
Assay type: functional

Row | MIC [µg/mL] | Compound
46 | 25 (≈ 68.8 µM) | O=c1oc2ccccc2cc1-c1nc2ccccc2c2nc3ccccc3n12
47 | 40 (≈ 90.4 µM) | O=c1oc2c(Br)cccc2cc1-c1nc2ccccc2c2nc3ccccc3n12
48 | 35 (≈ 81 µM) | O=c1oc2c(Cl)cc(Cl)cc2cc1-c1nc2ccccc2c2nc3ccccc3n12

The compounds below were run on Staphylococcus aureus (assay: Antibacterial activity against Staphylococcus aureus by liquid dilution method). Conditions: not given.
Assay type: functional

Row | MIC [µg/mL] | Compound
49 | 35 (≈ 96.3 µM) | O=c1oc2ccccc2cc1-c1nc2ccccc2c2nc3ccccc3n12
50 | 40 (≈ 90.4 µM) | O=c1oc2c(Br)cccc2cc1-c1nc2ccccc2c2nc3ccccc3n12
51 | 2.5 (≈ 5.78 µM) | O=c1oc2c(Cl)cc(Cl)cc2cc1-c1nc2ccccc2c2nc3ccccc3n12

The compounds below were run on Candida albicans (assay: Antifungal activity against Candida albicans by liquid dilution method). Conditions: not given.
Assay type: functional

Row | MIC [µg/mL] | Compound
52 | 35 (≈ 96.3 µM) | O=c1oc2ccccc2cc1-c1nc2ccccc2c2nc3ccccc3n12
53 | 40 (≈ 90.4 µM) | O=c1oc2c(Br)cccc2cc1-c1nc2ccccc2c2nc3ccccc3n12
54 | 50 (≈ 116 µM) | O=c1oc2c(Cl)cc(Cl)cc2cc1-c1nc2ccccc2c2nc3ccccc3n12

Source: ChEMBL document CHEMBL1641588, “3-[Benzimidazo- and 3-[benzothiadiazoleimidazo-(1,2-c)quinazolin-5-yl]-2H-chromene-2-ones as potent antimicrobial agents” (2011)
